According to ChEMBL document CHEMBL1152104, “Synthesis of partially non-peptidic neurotensin mimetics” (Bioorg Med Chem Lett, 1994):

How the values were obtained:
[1] = target: T1, Neurotensin receptor type 1 (Rattus norvegicus, UniProt P20789); test: Equilibrium dissociation constant at cloned rat Neurotensin receptor (NT) receptor expressed in CHO-K1 cells; 0.3-0.7 uM; assay type: cell-based
Homo sapiens = organism: Homo sapiens; test: Concentration required to stimulate cGMP production in NIE-115 neuroblastoma cells at higher doses in 10-100 uM range; assay type: functional, cell-based
[2] = target: T1, Neurotensin receptor type 1; test: Equilibrium dissociation constant at cloned rat Neurotensin receptor (NT) receptor
CHO-K1 = test: Effect on PI turnover in intact CHO-K1 cells; assay type: functional, cell-based; details: Cricetulus griseus

T1 sequence (P20789 whole entry): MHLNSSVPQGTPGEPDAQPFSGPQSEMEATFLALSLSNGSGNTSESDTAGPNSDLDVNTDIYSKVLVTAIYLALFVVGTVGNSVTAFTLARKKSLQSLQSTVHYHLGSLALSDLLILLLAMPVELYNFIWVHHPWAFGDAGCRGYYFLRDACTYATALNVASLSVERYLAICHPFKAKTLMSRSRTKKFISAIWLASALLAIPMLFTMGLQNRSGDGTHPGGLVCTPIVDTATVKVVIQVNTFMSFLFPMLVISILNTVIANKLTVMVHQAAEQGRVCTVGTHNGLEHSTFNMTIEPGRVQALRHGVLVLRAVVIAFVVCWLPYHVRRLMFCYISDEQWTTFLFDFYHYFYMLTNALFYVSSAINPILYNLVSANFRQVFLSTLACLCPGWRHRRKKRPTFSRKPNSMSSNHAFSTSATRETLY

| Structure (SMILES) | Kd [1] | EC50 (Homo sapiens) | Kd [2] | EC50 (CHO-K1) |
| --- | --- | --- | --- | --- |
| CC[C@H](C)[C@H](NC(=O)[C@H](Cc1ccc(O)cc1)NC(=O)c1[nH]c2c(OCCCCCN=C(N)N)cccc2c1CCCCCCN=C(N)N)C(=O)N[C@@H](CC(C)C)C(=O)O.O=C(O)C(F)(F)F | 300 nM | 19000 nM |  |  |
| CC[C@H](C)[C@H](NC(=O)[C@H](Cc1ccc(O)cc1)NC(=O)c1[nH]c2ccc(OCCCCCN)cc2c1CCCCCCN)C(=O)N[C@@H](CC(C)C)C(=O)O |  |  | ~40000 nM |  |
| CC[C@H](C)[C@H](NC(=O)[C@H](Cc1ccc(O)cc1)NC(=O)c1[nH]c2c(OCCCCCN)cccc2c1CCCCCCN)C(=O)N[C@@H](CC(C)C)C(=O)O | 300 nM |  |  | ~1300 nM |
| CC[C@H](C)[C@H](NC(=O)[C@H](Cc1c[nH]c2ccccc12)NC(=O)c1[nH]c2c(OCCCCCN=C(N)N)cccc2c1CCCCCCN=C(N)N)C(=O)N[C@@H](CC(C)C)C(=O)O | 300 nM |  |  |  |
